For data set [1], the system named is ALDH1. As to the kind of experiment: ALDH1 activity by resorufin propionate after treatment with inhibitors of ALDH 1 and 3 (HL-60 cells). Type of data set: cell-based. The conditions noted are these: inhibitor 8 μM, 6 hours, substrate 10 μM, one hour, P<0.001, FIG. 3. The method, then:
In a 96-well plate, the HL-60 cells were inoculated at a concentration of 50.000 cells/well in RPMI-1640 medium without phenol red supplemented with L-Glutamine, Penicillin, Streptomycin and 10% Fetal Calf Serum (FCS) supplemented with dimethyl ampalthiolester (DIMATE) a specific inhibitor ALDH 1 and 3, morpholino ampal thiolester (MATE) a specific inhibitor of ALDH3, at concentrations of 8 μM respectively. After incubation for 6 hours, the substrates of the different ALDHs respectively resorufine propionate for ALDH1 and resorufin 4-diethylaminobenzoate for ALDH3, were added to a final concentration of 10 μM and then incubated for one hour at +37° C. The plate was then read using an Appliskan fluorescent plate reader (ex=560 nm, Em=600). The data were expressed in relative fluorescence units produced by an equal number of cells.

Another data set concerns the target T1, ALDH1A1 (Homo sapiens, UniProt P00352).
T1 construct: purchased R&D Systems 5869-DH
T1 sequence (P00352 1-501): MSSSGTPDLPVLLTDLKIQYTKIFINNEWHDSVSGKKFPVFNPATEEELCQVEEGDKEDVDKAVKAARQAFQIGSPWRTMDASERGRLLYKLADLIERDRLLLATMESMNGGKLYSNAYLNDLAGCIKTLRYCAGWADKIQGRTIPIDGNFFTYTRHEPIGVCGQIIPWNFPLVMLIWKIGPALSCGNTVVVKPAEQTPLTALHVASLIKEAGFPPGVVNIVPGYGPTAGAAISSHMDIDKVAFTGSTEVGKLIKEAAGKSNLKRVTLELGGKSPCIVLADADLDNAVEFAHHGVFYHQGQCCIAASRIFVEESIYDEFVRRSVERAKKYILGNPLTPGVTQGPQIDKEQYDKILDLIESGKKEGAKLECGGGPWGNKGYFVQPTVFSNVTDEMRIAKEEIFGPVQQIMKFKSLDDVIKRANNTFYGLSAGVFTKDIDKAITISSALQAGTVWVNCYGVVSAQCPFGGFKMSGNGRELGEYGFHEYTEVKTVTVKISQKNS
As to the kind of experiment: Double localization of resorufin propionate and ALDH1A1 by fluorescent microscopy (NCI-H522 cells). Type of data set: cell-based. As to conditions: DIMATE 5 μM, 6 hours, results not shown. The method, then: In a 24-well plate with microscope glasses previously washed with ethanol and then placed in the wells, the NCI-H522 cells were added at a cell concentration of 50.000 cells/well and then incubated in RPMI-1640 medium supplemented with L-Glutamine, Penicillin, Streptomycin and 10% Fetal Calf Serum overnight at +37° C. with a 5% CO2 atmosphere. The next day, the culture medium was changed with either DIMATE (5 μM) or the treatment vehicle and incubated for 6 hours. The cells were incubated for 30 minutes with culture medium supplemented with 10 μM of resorufin propionate, were then washed with cold PBS and then fixed with paraformaldehyde for 15 minutes at 37° C. The cells were permeabilized and saturated with PBS; 3% bovine albumin; 0.3% triton for 1 hour. The incubation was carried out with the anti-ALDH1A1 antibody (R&D System, MAB5869) for 1 hour at +37° C., then with an anti-mouse antibody coupled to fluorescein for 1 hour at room temperature in the dark, with PBS washes between the two steps. 3 washes with PBS were carried out then the microscopy glasses were mounted with an anti-decoloration support supplemented with DAPI. The cells were then observed under a microscope.

Data set [2] concerns ALDH1. As to the kind of experiment: Identification of positive ALDH1 cells by flow cytometry via resorufin propionate. Type of data set: cell-based. The conditions noted are these: 15 μM Dimate, 5 hours, FIG. 4. The method, then:
In a 60 mm Petri dish, 500.000 cells were incubated with RPMI-1640 medium supplemented with L-Glutamine, Penicillin, Streptomycin and 10% Fetal Calf Serum overnight at +37° C. with 5% atmosphere. CO2. For the negative control, the cells were taken up in medium supplemented with 15 μM of dimethyl ampal thiolester (Dimate), a specific inhibitor of ALDH1 and 3, then incubated for 5 hours at 37° C., 5% CO2. After trypsination, the cells were taken up in supplemented RPMI medium and centrifuged at 800 g for 5 minutes. The cell pellet was then taken up in fresh supplemented medium containing 10 μM of resorufin propionate, and then incubated for 1 hour in a polycarbonate tube at 37° C., 5% CO2. After incubation, the cells were then centrifuged and then washed in cold PBSx1 and finally taken up in […] of cold PBSx1. The solution was then analyzed by flow cytometry ([…] or red laser).

Substrate in data set [3]: CCC(=O)Oc1ccc2nc3ccc(=O)cc-3oc2c1
Briefly: Determination of the Km and Vmax of resorufine propionate with purified ALDH1A1. As to conditions: other: column ALDH1; substrate range 70-250 μM; pH 6.0; 37.0 °C. Type of data set: biochemical. The method, then: (§1) In 50 μl of 0.1 M phosphate buffer pH6.00; 0.2 M KCl; 2 mM NADP+; 2 mM EDTA, a range of resorufine propionate was made: 250, 200, 150, 125, 100, 90, 80 and 70 μM and 0 μM. 50 μL of recombinant enzyme solution at 2.5 mU/well ALDH1A1 (R&D Sytems, 5869-DH), ALDH2 (abcam, ab87415) and ALDH3A1 (R&D Sytems, 6705-DH) was added. The incubation was carried out for 30 minutes at +37° C. and then the fluorescence reading was made (Em: 590 nm, Ex: 530 nm). The data were then converted to resorufin released (nM·min-1.μg^−1) and Km and Vmax were calculated using the Michaelis-Menten equation using GraphPad Prism 5.0.

Substrate in data set [4]: CCC(=O)Oc1ccc2nc3ccc(=O)cc-3oc2c1
Briefly: Determination of the Km and Vmax of resorufine propionate with purified ALDH2. The conditions noted are these: other: column ALDH2; substrate range 70-250 μM; pH 6.0; 37.0 °C. Type of data set: biochemical. The method, then: as §1

As a reminder, the melting point is the temperature, or range, at which the solid turns liquid. As a reminder, the Km is the concentration of substrate that gives half-maximal velocity.

For the molecule `CSC(=O)C#CC(C)(C)N(C)C` [DIMATE, dimethyl ampalthiolester], in the data set with ALDH1 [1], the “inhibition of fluorescence (resorufin propionate signal)” value is “significant inhibition of fluorescence”. For the same molecule, the “conversion of resorufin propionate to resorufin, fluorescent microscopy” value at ALDH1A1 is given as “inhibited”. Further, in the data set with ALDH1 [2] (10 μM resorufin propionate), the “positive ALDH1 cells (living cells), flow cytometry” value is “positive ALDH1 cell inhibition is observed”. Also, in the data set with ALDH1 [2] (Calcein-AM), the viability result is given as “decrease in viability”. The molecule `CCCCCC(=O)Oc1ccc2c(c1)Oc1cc(OC(=O)CCCCC)ccc1C21OC(=O)c2ccccc21` [Fluorescein di-hexanoate] showed a melting point of 103 to 105 °C. Turning to `CC1=C(/C=C/C(C)=C/C=C/C(C)=C/C(=O)Oc2ccc3c(c2)Oc2cc(OC(=O)/C=C(C)/C=C/C=C(C)/C=C/C4=C(C)CCCC4(C)C)ccc2C32OC(=O)c3ccccc32)C(C)(C)CCC1` (centres unmarked) [Fluorescein di-retinoate], the melting point is 145 to 150 °C (dec.). In the case of `CCCCCCCC(=O)Oc1ccc2c(c1)Oc1cc(OC(=O)CCCCCCC)ccc1C21OC(=O)c2ccccc21` [Fluorescein octanoate, Fluorescein dioctanoate], the melting point fell in the range of 50 to 52 °C.

B1: ALDH1A1 (Homo sapiens) (protein)
chain: T1 sequence (P00352 1-501)
notes: purchased R&D Systems 5869-DH
As to B1, in data set [3], the Km came out at 115 µM and the Vmax came to 12132 nM/min/µg.

B2: ALDH2 (Homo sapiens) (protein)
chain: SAAATQAVPAPNQQPEVFCNQIFINNEWHDAVSRKTFPTVNPSTGEVICQVAEGDKEDVDKAVKAARAAFQLGSPWRRMDASHRGRLLNRLADLIERDRTYLAALETLDNGKPYVISYLVDLDMVLKCLRYYAGWADKYHGKTIPIDGDFFSYTRHEPVGVCGQIIPWNFPLLMQAWKLGPALATGNVVVMKVAEQTPLTALYVANLIKEAGFPPGVVNIVPGFGPTAGAAIASHEDVDKVAFTGSTEIGRVIQVAAGSSNLKRVTLELGGKSPNIIMSDADMDWAVEQAHFALFFNQGQCCCAGSRTFVQEDIYDEFVERSVARAKSRVVGNPFDSKTEQGPQVDETQFKKILGYINTGKQEGAKLLCGGGIAADRGYFIQPTVFGDVQDGMTIAKEEIFGPVMQILKFKTIEEVVGRANNSTYGLAAAVFTKDLDKANYLSQALQAGTVWVNCYDVFGAQSPFGGYKMSGSGRELGEYGLQAYTEVKTVTVKVPQKNS
notes: purchased abcam ab87415
As for B2, in data set [4], the Km was 116 µM and the Vmax turned out to be 6693 nM/min/µg.
